US12479843B2, “Spiro ring-containing quinazoline compounds” (WIGEN BIOMEDICINE TECHNOLOGY (SHANGHAI) CO., LTD., priority 2019, dated 2025)
Like-named read-outs stand apart in the source and are kept apart here.

Key:
H358 cells = assay: Antiproliferative activity against H358 cells (Cell Titer Glow, ultra-low attachment plate); assay type: cell-based; conditions: Homo sapiens, NCI-H358, 72 h, three days after addition of compound
Method: 2500 H358 cells were seeded in a 96-well ultra-low attachment plate (corning, 7007). After one day of growth, a serially diluted compound (a maximum concentration of 5 μM, 5-fold dilution, a total of five doses) was added. Three days after the addition of the compound, Cell Titer Glow (Promega, G9681) was added to evaluate pellet growth, and the IC50 value was calculated.

[1] = Pharmacokinetic evaluation in mice; assay type: in vivo, male ICR mice; conditions: for Cmax: read-out: Cmax; for Tmax: read-out: Tmax
Method: The compounds were administered by intravenous injection at a dose of 2 mg/kg and oral gavage at a dose of 10 mg/kg (0.5% CMC-Na suspension). 15 male ICR mice were selected for each group, and each mouse was subjected to blood collection at 3 discrete time points, with 3 mice per time point. The time points of sampling were as follows: before the administration, and at 5 min, 15 min, 30 min, 1 h, 3 h, 5 h, 8 h, 12 h and 24 h after the administration. 80 μL of blood was collected from the eye sockets or the hearts of the mice at each of the time points after the administration. All whole blood samples were collected in tubes containing EDTA K2 and centrifuged (1500-1600 rmp) at 4° C. for 10 min to isolate plasma, which was then stored in a refrigerator at −90 to −60° C. for sample analysis. The compound concentration in the plasma was determined by liquid chromatography-tandem mass spectrometry, and the corresponding pharmacokinetic parameters were obtained according to a plasma concentration-time curve.

pERK level in H358 cells = assay: pERK and ERK protein content assay in H358 cells (ELISA); assay type: cell-based; conditions: Homo sapiens, NCI-H358, compound 1 μM, 24 h, pERK/ERK ratio compared with DMSO group, read-out: Inhibition rate (%) of pERK level
Outline: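 Percent inhibition of pERK relative to DMSO, from the ELISA pERK/ERK ratio in lysed H358 cells. Compound applied at 1 μM for 24 h after one day of growth.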

[2] = tested on: phosphorylated ERK (pERK) level in H358 cells; assay: pERK level assay by western blot in H358 cells; assay type: cell-based; conditions: overnight incubation, same concentration, FIG. 1
Method: H358 cells were plated on to a 24-well plate at 2×10^5 cells/well. Serially diluted compounds including AMG510, MRTX849, compound 142 and compound 171 were added. After overnight incubation, cells were lysed, and proteins were quantified and subjected to gel electrophoresis.

[3] = tested on: Human pancreatic cancer Mia PaCa-2 cells; assay: Antitumor activity on graft tumors of human pancreatic cancer Mia PaCa-2 in nude mice; assay type: in vivo; conditions: Mia PaCa-2 graft tumors in nude mice, 10 mg/kg intragastric, qd*21
Method: Human pancreatic cancer Mia PaCa-2 cells were cultured conventionally in 1640 medium containing 10% fetal bovine serum in a 37° C./5% CO2 incubator. After passage, the cells were collected when they reached the desired amount. 1×10^7 Mia PaCa-2 cells were injected into the left dorsal side of each nude mouse, and the animals were randomly grouped for administration after tumors grew to 150 mm3. The groups are as follows: 1) a solvent control group of 8 mice; and 2) compound 1 group, compound 2 group, compound 5 group, compound 31 group, compound 131 group, compound 142 group, compound 171 group, compound B group and compound C group, with 8 mice per group. Mice in the solvent control group were subjected to intragastric administration of 0.5% CMC-Na once daily; mice in compound 1 group, compound 2 group, compound 5 group, compound 31 group, compound 131 group, compound 142 group, compound 171 group, compound B group and compound C group were subjected to intragastric administration of a suspension of a compound in 0.5% CMC-Na once daily. On Tuesday and Thursday each week, tumor volumes and body weight of the mice were measured, and the nude mice were sacrificed on day 21 of administration.

[4] = male, ICR, mouse, plasma, iv, 2 mg/kg
[5] = male, ICR, mouse, plasma, po, 10 mg/kg, 0.5% CMC-Na suspension

IC50 (H358 cells; 96-well ultra-low attachment plate, Cell Titer Glow): < 300 nM | IC50 (H358 cells): 2.5 nM | AUC(0-t) [1, 4]: 52000 ng·h/mL | clearance [1, 4]: 0.642 mL/min/kg | half-life [1, 4]: 199 min | Cmax [1, 4]: 13100 ng/mL | Tmax [1, 4]: 0.083 h | Vd ([1]; male, ICR, mouse, plasma, iv, 2 mg/kg, read-out: Vss): 0.187 L/kg | AUC(0-t) [1, 5]: 46000 ng·h/mL | half-life [1, 5]: 233 min | Cmax [1, 5]: 6730 ng/mL | Tmax [1, 5]: 2 h | F ([1]; po 10 mg/kg vs iv 2 mg/kg): 17.7%
Compound: C=CC(=O)N1CC2(CCN(c3nc(N4CC(N5CCC5)C4)nc4c(OCC(F)(F)F)c(-c5c(C)ccc6[nH]ncc56)c(C5CC5)cc34)CC2)C1 [Compound 142]
inhibition at 1 µM (pERK level in H358 cells): > 90% | inhibition of the phosphorylated ERK (pERK) level in cells compared with AMG510 and MRTX849 [2]: stronger inhibition | Anti-tumor effect (regression) [3]: 35% regression
